22 compounds from patent publication US20130281399A1, “TREATMENT OF DISEASES BY EPIGENETIC REGULATION” (RVX Therapeutics Inc., priority 2012, published 2013) can be followed below.

Molecules are shown by their SMILES.

One data set deals with T1, Brd4 bromodomain 1 (Homo sapiens, UniProt O60885).
T1 construct: made in house; host or cells: E. coli BL21(DE3)
The data set can be described thus: Inhibition of binding of tetra-acetylated histone H4 to Brd4 bromodomain 1 (TR-FRET). The settings on record: His-tagged Brd4 bromodomain 1 200 nM, tetra-acetylated histone H4 peptide 25-50 nM, 2 hours room temperature. The procedure, abridged:
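His-tagged Brd4 BD1 was expressed in E. coli and purified by Ni affinity and size exclusion. TR-FRET competition with tetra-acetylated H4 was run in 30 mM HEPES pH 7.4, 30 mM NaCl, 0.3 mM CHAPS, 20 mM phosphate pH 7.0, 320 mM KF and 0.08% BSA, with 0.2% DMSO.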

For orientation: melting point means the temperature of the solid-liquid transition. The compound `COc1cc(OC)c2c(=O)[nH]c(-c3ccc(CN4C(=O)CNC4=O)cc3)nc2c1` [Example 80, 3-(4-(5,7-Dimethoxy-4-oxo-3,4-dihydroquinazolin-2-yl)benzyl)imidazolidine-2,4-dione] yielded a melting point of 317 to 318 °C. The “FRET activity (<50 uM)” value on Brd4 bromodomain 1 was “Inactive”.
For `Cc1cc(-c2nc3cccc(Cl)c3c(=O)[nH]2)cc(C)c1OCCN1CCCC1` [Example 83, 5-Chloro-2-(3,5-dimethyl-4-(2-(pyrrolidin-1-yl)ethoxy)phenyl)quinazolin-4(3H)-one] the same measures were 179 to 180 °C and “Inactive”.
For `COc1cc(OC)c2c(=O)[nH]c(-c3cc(C)c(OCCN4CCCCCC4)c(C)c3)nc2c1` [Example 84, 2-(4-(2-(Azepan-1-yl)ethoxy)-3,5-dimethylphenyl)-5,7-dimethoxyquinazolin-4(3H)-one] the same measures were 198 to 199 °C and “Active”.
Compound `COc1cc(OC)c2c(=O)[nH]c(-c3cc(C)c(OCCN4CCC4)c(C)c3)nc2c1` [Example 86, 2-(4-(2-(Azetidin-1-yl)ethoxy)-3,5-dimethylphenyl)-5,7-dimethoxyquinazolin-4(3H)-one] came in with a melting point of 204 to 205 °C. Further, at Brd4 bromodomain 1, the “FRET activity (<50 uM)” value is given as “Active”.
For `COc1cc(OC)c2c(=O)[nH]c(-c3cc(C)c(OCCN4CC(NC(C)=O)C4)c(C)c3)nc2c1` [Example 87, N-(1-(2-(4-(5,7-Dimethoxy-4-oxo-3,4-dihydroquinazolin-2-yl)-2,6-dimethylphenoxy)ethyl)azetidin-3-yl)acetamide], in that order: 111.8 to 113.6 °C and “Active”.
For `Cc1cc(-c2nc3cc(OC(C)C)cc(OC(C)C)c3c(=O)[nH]2)cc(C)c1OCCN1CCCC1` [Example 88, 2-(3,5-Dimethyl-4-(2-(pyrrolidin-1-yl)ethoxy)phenyl)-5,7-diisopropoxyquinazolin-4(3H)-one], in that order: 65 to 68 °C and “Inactive”.
Compound `Cc1cc(C)c2c(=O)[nH]c(-c3cc(C)c(OCCN4CCCC4)c(C)c3)nc2c1` [Example 89, 2-(3,5-Dimethyl-4-(2-(pyrrolidin-1-yl)ethoxy)phenyl)-5,7-dimethylquinazolin-4(3H)-one] yielded a melting point of 181 to 182 °C. Further, the “FRET activity (<50 uM)” value at Brd4 bromodomain 1 is given as “Active”.
For `COc1cc(OC)c2c(=O)[nH]c(-c3ccc(Cc4nnn[nH]4)cc3)nc2c1` [Example 96, 2-(4-((1H-Tetrazol-5-yl)methyl)phenyl)-5,7-dimethoxyquinazolin-4(3H)-one] the same measures were 295 to 296 °C and “Active”.
For `COc1cc(OCCOCc2ccccc2)cc2nc(-c3ccncc3)[nH]c(=O)c12` [Example 98, 7-(2-(Benzyloxy)ethoxy)-5-methoxy-2-(pyridin-4-yl)quinazolin-4(3H)-one], in that order: 228.2 to 229.9 °C and “Inactive”.
Consider `COc1cc(OC)c2c(=O)[nH]c(-c3cc(C)nc(C)c3)nc2c1` [Example 99, 2-(2,6-Dimethylpyridin-4-yl)-5,7-dimethoxyquinazolin-4(3H)-one], for which the melting point lay in the range of 291 to 292 °C. Besides, the “FRET activity (<50 uM)” value at Brd4 bromodomain 1 is on record as “Active”.
Take `COCCOc1cc(OC)c2c(=O)[nH]c(-c3cc(C)nc(C)c3)nc2c1` [Example 100, 2-(2,6-Dimethylpyridin-4-yl)-5-methoxy-7-(2-methoxyethoxy)quinazolin-4(3H)-one]: the melting point fell in the range of 228.8 to 230.4 °C. Further, on Brd4 bromodomain 1, the “FRET activity (<50 uM)” value was “Active”.
`COCCOc1cc(OCCOC)c2c(=O)[nH]c(-c3cc(C)nc(C)c3)nc2c1` [Example 101, 2-(2,6-Dimethylpyridin-4-yl)-5,7-bis(2-methoxyethoxy)quinazolin-4(3H)-one] displayed a melting point of 149.8 to 151.4 °C. The “FRET activity (<50 uM)” value at Brd4 bromodomain 1 is “Active”.
The compound `COc1cc(OCCN2CCCC2)c2c(=O)[nH]c(-c3cc(C)nc(C)c3)nc2c1` [Example 102, 2-(2,6-Dimethylpyridin-4-yl)-7-methoxy-5-(2-(pyrrolidin-1-yl)ethoxy)quinazolin-4(3H)-one] displayed a melting point of 190 to 191 °C. On Brd4 bromodomain 1, the “FRET activity (<50 uM)” value is “Active”.
The compound `COc1cc(OCCOc2ccccc2)cc2nc(-c3cc(C)nc(C)c3)[nH]c(=O)c12` [Example 103, 2-(2,6-Dimethylpyridin-4-yl)-5-methoxy-7-(2-phenoxyethoxy)quinazolin-4(3H)-one] yielded a melting point of 223 to 224 °C. Moreover, the “FRET activity (<50 uM)” value at Brd4 bromodomain 1 is reported as “Active”.
For `COc1cc(OCCOc2ccccc2)c2c(=O)[nH]c(-c3cc(C)nc(C)c3)nc2c1` [Example 104, 2-(2,6-Dimethylpyridin-4-yl)-7-methoxy-5-(2-phenoxyethoxy)quinazolin-4(3H)-one] the same measures were 172.3 to 173.2 °C and “Active”.
In turn, `COc1cc(OCCN2CCCC2)cc2nc(-c3cc(C)nc(C)c3)[nH]c(=O)c12` [Example 106, 2-(2,6-Dimethylpyridin-4-yl)-5-methoxy-7-(2-(pyrrolidin-1-yl)ethoxy)quinazolin-4(3H)-one] came in with a melting point of 227 to 229 °C. Further, the “FRET activity (<50 uM)” value on Brd4 bromodomain 1 is on record as “Active”.
`Cc1cc(-c2nc3cc(OCCOC(C)C)cc(OCCOC(C)C)c3c(=O)[nH]2)cc(C)n1` [Example 108, 2-(2,6-dimethylpyridin-4-yl)-5,7-bis(2-isopropoxyethoxy)quinazolin-4(3H)-one]: the melting point was 124 to 125 °C. Besides, the “FRET activity (<50 uM)” value on Brd4 bromodomain 1 is reported as “Active”.
For `COc1cc(OCCOCc2ccccc2)cc2nc(-c3cc(C)nc(C)c3)[nH]c(=O)c12` [Example 109, 7-(2-(Benzyloxy)ethoxy)-2-(2,6-dimethylpyridin-4-yl)-5-methoxyquinazolin-4(3H)-one] the same measures were 178 to 180 °C and “Active”.
For `COCCOc1cc(OC)c2c(=O)[nH]c(-c3ccnc(C)c3)nc2c1` [Example 110, 5-methoxy-7-(2-methoxyethoxy)-2-(2-methylpyridin-4-yl)quinazolin-4(3H)-one] the same measures were 260 to 262 °C and “Active”.
As to `COCCOc1cc(OCCN2CCCC2)c2c(=O)[nH]c(-c3cc(C)nc(C)c3)nc2c1` [Example 111, 2-(2,6-Dimethylpyridin-4-yl)-7-(2-methoxyethoxy)-5-(2-(pyrrolidin-1-yl)ethoxy)quinazolin-4(3H)-one], the melting point lay within 60.4 to 62.3 °C. The “FRET activity (<50 uM)” value at Brd4 bromodomain 1 was “Active”.
For `COc1cc(OC)c2c(=O)[nH]c(-c3cccc(OCCO)c3)nc2c1` [Example 112, 2-(3-(2-Hydroxyethoxy)phenyl)-5,7-dimethoxyquinazolin-4(3H)-one] the same measures were 244.8 to 246 °C and “Active”.
For the compound `COc1cc(OC)c2c(=O)[nH]c(-c3cc(C)cc(OCCO)c3)nc2c1` [Example 113, 2-(3-(2-Hydroxyethoxy)-5-methylphenyl)-5,7-dimethoxyquinazolin-4(3H)-one], the melting point lay in the range of 106.9 to 109.1 °C. Moreover, the “FRET activity (<50 uM)” value at Brd4 bromodomain 1 is given as “Active”.
